The values that follow come from US20220074923A1, “METHODS OF IDENTIFYING PARKIN-MEDIATED MITOPHAGY ACTIVATING AGENTS” (THE GOVERNING COUNCIL OF THE UNIVERSITY OF TORONTO, priority 2018, published 2022).

One series relates to HeLa cells. In words: Mito-QC assay (targeting of mitochondria to lysosomes). Type of series: cell-based. The settings on record: 0.5 μM 2 h pre-treatment, 10 μM CCCP 6 h with E-64 and leupeptin. As for the experimental part: HeLa cells were seeded into 6-well plates containing glass coverslips and allowed to adhere overnight. Cells were co-transfected with RGOMP25 and Cerulean-Parkin plasmids 24 hours prior to treatments. E-64 and leupeptin were added along with either DMSO or 10 μM CCCP for 6 hours prior followed by a PBS wash, fixation with 4% PFA and a final PBS wash prior to mounting onto glass slides with Fluoromount.
Cells were treated with 50 μM chloroquine for 16 hours prior to addition of E64, leupeptin, SR3677 and CCCP in the indicated treatment group. For the in vivo mitoQC assays, 5 7-day old male TH-GAL4>UAS-mitoQC were placed into vials containing water (control), sublethal 1 mM paraquat, 1 mM SR3677 alone and in combination with paraquat for 7 days. […] Fly brains were mounted in VectaShield™ mounting medium for imaging using the Zeiss LSM700 confocal fluorescence microscope with 40× 1.4 NA Oil Plan-APOCRAMAT objective and the appropriate lasers and filter. […]
Quantification of the RG assay was done using Fiji software. […] A red/green fluorescence intensity ratio was determined for each pixel. Pixels were considered red-only if the red/green fluorescence ratio was greater than or equal to 1.5. The area of red-only pixels over the total non-background area was determined and averaged across 4 independent trials in which at least 20 cells were quantified per treatment.

Series [1] concerns differentiated SH-SY5Y cells. Description: Cell viability determination (ATP levels normalized to protein). The series is classed as cell-based. The following applies: 24 hours. As for the experimental part:
SH-SY5Y cells were differentiated according to previously established protocol consisting of sequential treatment with retinoic acid followed by brain-derived neurotrophic factor^10. Cells were then seeded into white 96-well plates with white bottom and allowed to adhere overnight. Varying doses of SR3677 were combined with 500 μM paraquat and administered for 24 hours. Controls treated with 0.5 μM SR3677, equivalent volume DMSO and paraquat alone were also included. Following 24-hour incubation, cell media was aspirated and THE lysis buffer (50 mM Tris-HCl, 100 mM NaCl, 0.1 mM EDTA) containing protease inhibitor cocktail was added to each well. Half of the lysate volume was removed and aliquoted into a separate 96-well plate. ATP levels were measured in the opaque plate using the ATP determination (ThermoFisher A22066) assay kit and protein concentrations were measured using the Pierce BCA (ThermoFisher #23225) assay kit. ATP levels were normalized to protein concentration and then by the ratio for cells treated with paraquat alone in a control well on each plate.

The next series deals with Canton(S) flies. Type of series: in vivo, Drosophila.

Method for Canton(S) flies: Fresh vials containing standard fly food supplemented with the indicated treatments were changed out every 2 days. The number of flies surviving each day was counted and log-rank tests were performed to determine statistical significance. […] The number of flies to climb beyond 9.5 cm every 10 seconds was assessed. The percentage of flies in each treatment to cross this line was determined. The climbing ability of each treatment was normalized to the control group treated with water only. […] Log-rank tests were performed to determine p-values for survival analyses (a, b, g), *P<0.05. P-values were determined by one-tailed paired student's t-test for all climbing assays (c-e, h), *P<0.05. Data is expressed as mean±s.e.m. All error bars represent s.e.m
Drosophila aged 7 days are fed food supplemented with either water (control), 1 mM SR3677, 10 mM paraquat or SR3677 in combination with paraquat. The survival of flies was recorded each day following administration of the treatments and climbing abilities were tested every 2 days by performing negative geotaxis assays.
Male Canton(S) Drosophila were aged 7 days prior to feeding with standard fly food supplemented with water, 10 mM paraquat, 1 mM SR3677, or with combinations of these chemicals. Flies were placed into new vials containing fresh food supplemented with the treatments previously administered and 2 days later, climbing assays were performed. Flies were placed into plastic cylinder vials and tapped down, so all flies fell to the bottom. The number of flies to climb beyond 12.5 cm was counted every 10 s and values are represented as the percentage of total flies in each treatment group.

Take `CN(C)CCOc1cc(-c2cn[nH]c2)ccc1NC(=O)[C@@H]1COc2ccccc2O1` [SR3677]: the “mitochondrial targeting to lysosomes (red-only mitochondrial area)” value in the series with HeLa cells is on record as “increased the extent of mitochondrial targeting to lysosomes”. Moreover, the “cell viability, compound alone” value in series [1] (0.5 μM) was “did not affect cell viability”. Further, the “viability of cells challenged with paraquat” value in series [1] (varying concentrations with 500 μM paraquat) is listed as “improved the viability of cells challenged with paraquat in a dose-dependent manner”. Moreover, in the series on Canton(S) flies (1 mM SR3677 in food), the “survival of flies, compound alone” value is on record as “does not affect survival of flies”. For the same molecule, the “survival of flies challenged with paraquat” value in the series on Canton(S) flies (1 mM SR3677 with 10 mM paraquat in food) was “significantly improved viability of flies”.
